The source of these data is patent publication US4169941A, “Derivatives of XK-88-5 and process for the production thereof” (Abbott Laboratories, priority 1976, dated 1979).

Values after ≈ are worked out from the molar mass of the structure shown. Like-named read-outs stand apart in the source and are kept apart here.

The subject of experiment [1] is Bacillus subtilis KY 4273. In words: MIC, agar dilution method (pH 8.0). As to conditions: KY4273, read-out: minimum inhibitory concentration (MIC). In kind it is cell-based. The text has this: (§1) The following Table 1 illustrates minimum inhibitory concentrations (MIC) of 2"-N-formyl-XK-88-5 against various Gram-positive and Gram-negative bacteria determined by agar dilution method (pH 8.0).

In experiment [2] the test system is Erwinia aroideae KY 3241. In words: MIC, agar dilution method (pH 8.0). In kind it is cell-based. As to conditions: Pectobacterium carotovorum, KY3241, read-out: minimum inhibitory concentration (MIC).
Source text: as §1
A general note: Agar dilution tests growth on a series of plates holding different concentrations.

The test system of experiment [3] is Escherichia coli KY 4271. In words: MIC, agar dilution method (pH 8.0). In kind it is cell-based. As to conditions: KY4271, read-out: minimum inhibitory concentration (MIC).
Source text: as §1

For experiment [4], the system named is Klebsiella pheumoniae KY 4275. In words: MIC, agar dilution method (pH 8.0). In kind it is cell-based. As to conditions: KY4275, read-out: minimum inhibitory concentration (MIC).
Source text: as §1

Experiment [5] has as its system Proteus vulgaris KY 4277. In words: MIC, agar dilution method (pH 8.0). In kind it is cell-based. As to conditions: KY4277, read-out: minimum inhibitory concentration (MIC).
Source text: as §1

The subject of experiment [6] is Pseudomonas alkaligenes KY 4656. The experiment in a line: MIC, agar dilution method (pH 8.0). In kind it is cell-based. As to conditions: KY4656, read-out: minimum inhibitory concentration (MIC).
Source text: as §1

In experiment [7] the test system is Salmonella typhosa KY 4278. In words: MIC, agar dilution method (pH 8.0). In kind it is cell-based. As to conditions: Salmonella enterica, pH 8, read-out: minimum inhibitory concentration (MIC).
Source text: as §1

The test system of experiment [8] is Shigella sonnei KY 4281. The experiment in a line: MIC, agar dilution method (pH 8.0). As to conditions: KY4281, read-out: minimum inhibitory concentration (MIC). In kind it is cell-based.
Source text: as §1

For experiment [9], the system named is Staphylococcus aureus Ky 4279. The experiment in a line: MIC, agar dilution method (pH 8.0). In kind it is cell-based. As to conditions: KY4279, read-out: minimum inhibitory concentration (MIC).
Source text: as §1

Experiment [10] relates to Vibrio percolans KY 4174. The experiment in a line: MIC, agar dilution method (pH 8.0). In kind it is cell-based. As to conditions: Comamonas terrigena, KY4174, read-out: minimum inhibitory concentration (MIC).
Source text: as §1

Experiment [11] has as its system various Gram-positive and Gram-negative bacteria. The experiment in a line: antibacterial activity (general statement). In kind it is cell-based. As to conditions: in words.
Source text: as §1

Experiment [12] has the same test system. As to conditions: in words; parent antibiotic, background; cited from earlier work.

With `COC1COC(OC2C(N)CC(N)C(OC3OC(CN)CC(O)C3N)C2O)C(NC=O)C1N` (stereo not drawn) [2"-N-formyl-XK-88-5], the MIC was 0.32 µg/mL (≈ 0.669 µM) in experiment [1]; 1.25 µg/mL (≈ 2.61 µM) in [2]; 2.5 µg/mL (≈ 5.22 µM) in experiment [3]; 0.64 µg/mL (≈ 1.34 µM) in experiment [4]; 2.5 µg/mL (≈ 5.22 µM) in [5]; 2.5 µg/mL (≈ 5.22 µM) in experiment [6]. Besides, the MIC came out at 2.5 µg/mL (≈ 5.22 µM) in experiment [7], 2.5 µg/mL (≈ 5.22 µM) in [8], 0.32 µg/mL (≈ 0.669 µM) in experiment [9] and 10 µg/mL (≈ 20.9 µM) in experiment [10]. Further, the antibacterial activity result in experiment [11] is reported as “strong antibacterial activity”.

For the molecule `COC1COC(OC2C(N)CC(N)C(OC3OC(CN)CC(O)C3N)C2O)C(N)C1N` (stereo not drawn) [XK-88-5], in [12], the antibacterial activity result was “high antibacterial activity”.
